Source: patent US12077503B2, “Substituted cyclic amides and their use as herbicides” (FMC CORPORATION, priority 2015, dated 2024)

Assays:
Format in all cases: in vivo
[1] = tested on: corn (Zea mays); experiment: Test A postemergence; details: Zea mays, post-emergence, 240 h
Outline: (§1)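 Visual injury, scored on a 0–100 scale relative to untreated controls, was recorded about 10 d after application. Treatments were a preemergence soil spray over planted seeds or a postemergence spray on plants at the one- to two-leaf stage, 2 to 10 cm tall, all in loam soil–sand blend in the greenhouse.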

[2] = tested on: wheat (Triticum aestivum); experiment: Test A postemergence; details: Triticum aestivum, post-emergence, 240 h, read-out: Plant response rating, Wheat
Outline: as §1

[3] = tested on: ryegrass, Italian (Italian ryegrass, Lolium multiflorum); experiment: Test A postemergence; details: Lolium multiflorum, post-emergence, 240 h, read-out: Plant response rating, Ryegrass, Italian
Outline: as §1

[4] = tested on: Kochia (Kochia scoparia); experiment: Test A postemergence; details: Bassia scoparia, post-emergence, 240 h, read-out: Plant response rating, Kochia
Outline: as §1

[5] = tested on: giant foxtail (Setaria faberii); experiment: Test A postemergence; details: Setaria faberi, post-emergence, 240 h, read-out: Plant response rating, Foxtail, Giant
Outline: as §1

[6] = tested on: barnyardgrass (Echinochloa crus-galli); experiment: Test A postemergence; details: Echinochloa crus-galli, post-emergence, 240 h, read-out: Plant response rating, Barnyardgrass
Outline: as §1

[7] = tested on: ragweed (common ragweed, Ambrosia elatior); experiment: Test A postemergence; details: Ambrosia artemisiifolia, post-emergence, 240 h, read-out: Plant response rating, Ragweed
Outline: as §1

[8] = tested on: blackgrass (Alopecurus myosuroides); experiment: Test A postemergence; details: Alopecurus myosuroides, post-emergence, 240 h, read-out: Plant response rating, Blackgrass
Outline: as §1

[9] = tested on: pigweed (Amaranthus retroflexus); experiment: Test A postemergence; details: Amaranthus retroflexus, post-emergence, 240 h, read-out: Plant response rating, Pigweed
Outline: as §1

[10] = tested on: Galium (catchweed bedstraw, Galium aparine); experiment: Test A postemergence; details: Galium, post-emergence, 240 h, read-out: Plant response rating, Galium
Outline: as §1

[11] = tested on: ryegrass, Italian (Italian ryegrass, Lolium multiflorum); experiment: Test A preemergence; details: Lolium multiflorum, pre-emergence, 240 h
Outline: as §1

[12] = tested on: Kochia (Kochia scoparia); experiment: Test A preemergence; details: Bassia scoparia, pre-emergence, 240 h
Outline: as §1

[13] = tested on: giant foxtail (Setaria faberii); experiment: Test A preemergence; details: Setaria faberi, pre-emergence, 240 h
Outline: as §1

[14] = tested on: barnyardgrass (Echinochloa crus-galli); experiment: Test A preemergence; details: Echinochloa crus-galli, pre-emergence, 240 h
Outline: as §1

[15] = tested on: ragweed (common ragweed, Ambrosia elatior); experiment: Test A preemergence; details: Ambrosia artemisiifolia, pre-emergence, 240 h
Outline: as §1

[16] = tested on: pigweed (Amaranthus retroflexus); experiment: Test A preemergence; details: Amaranthus retroflexus, pre-emergence, 240 h
[17] = tested on: sedge, umbrella (small-flower umbrella sedge, Cyperus difformis); experiment: Test B flooded paddy test; details: Cyperus difformis, 250 g ai/ha, Flood; 0 to 100 scale where 0 is no effect and 100 is complete control; read-out: Sedge, Umbrella plant response rating
Outline: (§2)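 Rating scale 0–100 (visual, vs untreated controls) after a 13–15 d greenhouse period; application to the flood layer, 3 cm above soil and maintained; plants at 2-leaf stage when treated.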

[18] = tested on: barnyardgrass (Echinochloa crus-galli); experiment: Test B flooded paddy test; details: Echinochloa crus-galli, 250 g ai/ha, Flood; 0 to 100 scale where 0 is no effect and 100 is complete control; read-out: Barnyardgrass plant response rating
Outline: as §2

[19] = tested on: ducksalad (Heteranthera limosa); experiment: Test B flooded paddy test; details: Heteranthera limosa, 250 g ai/ha, Flood; 0 to 100 scale where 0 is no effect and 100 is complete control; read-out: Ducksalad plant response rating
Outline: as §2

[20] = tested on: rice (Oryra sativa); experiment: Test B flooded paddy test; details: Oryza sativa, 250 g ai/ha, Flood; 0 to 100 scale where 0 is no effect and 100 is complete control; read-out: Rice plant response rating
Outline: as §2

[21] = 125 g ai/ha, Postemergence, visual injury after approximately 10 d, 0 to 100 scale where 0 is no effect and 100 is complete control
[22] = 500 g ai/ha, postemergence, visual injury, 0 to 100 scale (0 no effect, 100 complete control), approx. 10 d

SMILES: COc1ccc([C@H]2CN(C)C(=O)[C@@H]2C(=O)Nc2ccccc2F)cc1F [Compound 1020]
- Corn plant response rating (crop injury, 0 = no effect, 100 = complete kill) at 125 g/ha [1, 21]: 0%
- Corn plant response rating (crop injury, 0 = no effect, 100 = complete kill) at 500 g/ha [1, 22]: 30%
- plant injury at 125 g/ha [2, 21]: 0%
- plant injury at 500 g/ha [2, 22]: 30%
- pest or weed control at 125 g/ha [3, 21]: 30%
- pest or weed control at 500 g/ha [3, 22]: 30%
- pest or weed control at 125 g/ha [4, 21]: 50%
- pest or weed control at 500 g/ha [4, 22]: 50%
- pest or weed control at 125 g/ha [5, 21]: 90%
- pest or weed control at 500 g/ha [5, 22]: 90%
- pest or weed control at 125 g/ha [6, 21]: 90%
- pest or weed control at 500 g/ha [6, 22]: 90%
- pest or weed control at 125 g/ha [7, 21]: 0%
- pest or weed control at 500 g/ha [7, 22]: 0%
- pest or weed control at 125 g/ha [8, 21]: 0%
- pest or weed control at 500 g/ha [8, 22]: 20%
- pest or weed control at 125 g/ha [9, 21]: 30%
- pest or weed control at 500 g/ha [9, 22]: 30%
- pest or weed control at 125 g/ha [10, 21]: 40%
- pest or weed control at 500 g/ha [10, 22]: 60%
- pest or weed control at 125 g/ha ([11]; 125 g ai/ha, Preemergence, visual injury rating after approximately 10 d, read-out: Ryegrass, Italian plant response rating (0 to 100 scale, 0 is no effect, 100 is complete control)): 0%
- pest or weed control at 500 g/ha ([11]; 500 g ai/ha, preemergence, visual injury rating about 10 d after treatment, 0 to 100 scale (0 no effect, 100 complete control), read-out: Ryegrass, Italian plant response rating): 30%
- pest or weed control at 125 g/ha ([12]; 125 g ai/ha, Preemergence, visual injury rating after approximately 10 d, read-out: Kochia plant response rating (0 to 100 scale, 0 is no effect, 100 is complete control)): 30%
- pest or weed control at 500 g/ha ([12]; 500 g ai/ha, preemergence, visual injury rating about 10 d after treatment, 0 to 100 scale (0 no effect, 100 complete control), read-out: Kochia plant response rating): 20%
- pest or weed control at 125 g/ha ([13]; 125 g ai/ha, Preemergence, visual injury rating after approximately 10 d, read-out: Foxtail, Giant plant response rating (0 to 100 scale, 0 is no effect, 100 is complete control)): 90%
- pest or weed control at 500 g/ha ([13]; 500 g ai/ha, preemergence, visual injury rating about 10 d after treatment, 0 to 100 scale (0 no effect, 100 complete control), read-out: Foxtail, Giant plant response rating): 90%
- pest or weed control at 125 g/ha ([14]; 125 g ai/ha, Preemergence, visual injury rating after approximately 10 d, read-out: Barnyardgrass plant response rating (0 to 100 scale, 0 is no effect, 100 is complete control)): 90%
- pest or weed control at 500 g/ha ([14]; 500 g ai/ha, preemergence, visual injury rating about 10 d after treatment, 0 to 100 scale (0 no effect, 100 complete control), read-out: Barnyardgrass plant response rating): 90%
- pest or weed control at 125 g/ha ([15]; 125 g ai/ha, Preemergence, visual injury rating after approximately 10 d, read-out: Ragweed plant response rating (0 to 100 scale, 0 is no effect, 100 is complete control)): 0%
- pest or weed control at 500 g/ha ([15]; 500 g ai/ha, preemergence, visual injury rating about 10 d after treatment, 0 to 100 scale (0 no effect, 100 complete control), read-out: Ragweed plant response rating): 20%
- pest or weed control at 125 g/ha ([16]; 125 g ai/ha, Preemergence, visual injury rating after approximately 10 d, read-out: Pigweed plant response rating (0 to 100 scale, 0 is no effect, 100 is complete control)): 30%
- pest or weed control at 500 g/ha ([16]; 500 g ai/ha, preemergence, visual injury rating about 10 d after treatment, 0 to 100 scale (0 no effect, 100 complete control), read-out: Pigweed plant response rating): 40%
- pest or weed control at 250 g/ha [17]: 0%
- pest or weed control at 250 g/ha [18]: 75%
- pest or weed control at 250 g/ha [19]: 90%
- pest or weed control at 250 g/ha [20]: 20%
